How the values were obtained:
[1] = tested on: tissue-equivalent of the present invention (non-dividing fibroblasts); assay: Camptothecin toxicity on the non-dividing model (tissue equivalent), MTT; type: cell-based, human; conditions: non-dividing cells
Protocol: (§1) As mentioned previously, the tissue equivalent of the present invention could be used as an in vitro model of normal non-dividing cells for safety testing of anti-cancer compounds. To test its usefulness as such a model, dividing monolayers of fibroblasts and the tissue-equivalent of the present invention were incubated with or without (control) camptothecin, an anti-cancer drug known to act on dividing cells and not on non-dividing cells. Both were incubated for the same period of time. Then the metabolic activity was assessed by incubating both groups in MTT, which was quantified by spectrophotometry. […] Leroy et al. Ann. N.Y. Acad. Sci. (2000) 922:1-10. Thus, these are normal cells in a non-dividing state, which could be a model of the normal quiescent cells of the human body, in contrast to the abnormal tumour cells which are rapidly dividing.

[2] = tested on: dividing monolayers of fibroblasts; assay: Camptothecin toxicity on dividing monolayers, MTT; type: cell-based, human; conditions: actively dividing monolayer cells
Protocol: as §1

[3] = tested on: neuropathic diabetic foot ulcers; conditions: topical; cited from earlier work

Compound	Toxicity (metabolic activity, MTT) [1]	Toxicity (metabolic activity, MTT) [2]	Acceleration in the healing of ulcers [3] [%]
CC[C@@]1(O)C(=O)OCc2c1cc1n(c2=O)Cc2cc3ccccc3nc2-1 [camptothecin]	no toxicity	toxic	–
Regranex® Becaplermin: FDA-approved topical platelet-derived growth factor (PDGF) for chronic diabetic neuropathic ulcers	–	–	15
